System: LH receptor (LH-R) mRNA expression in rat granulosa cells
Assay: Microassay for dioxins using FSH-induced LH-R mRNA expression in rat granulosa cells (Northern blotting, densitometry)
Assay type: cell-based
Settings: for amount of LH-R mRNA expressed relative to that without TCDD addition: normalised to GAPDH mRNA, N=3
Method: Rat granulosa cells were obtained from a juvenile female Wistar rat (purchased from Charles River Laboratories, Inc.) which had been injected with 2 mg of diethylstilbestrol (produced by Sigma Chemical Co.) dissolved in 0.1 ml of sesame oil once per day for 4 days. Specifically, the ovary of the juvenile female Wistar rat was removed and a hole was made in its follicle with a 25-gauge needle to take out granulosa cells. During this series of operations, the rat was treated according to the NIH guidelines (Biosafety in microbiological and biomedical laboratories). Then, the obtained granulosa cells were washed and centrifuged to collect them. The viability of the cells was determined by the known trypan blue exclusion method.
The obtained granulosa cells (viability: over 90%) were cultured in Ham's F-12/DME (1:1 vol/vol) (produced by Gibco Laboratories) containing 1.1 g/l NaHCO3, 40 mg/l gentamicin sulfate (produced by Sigma Chemical Co.), 1 mg/l Fungizone (produced by Gibco Laboratories) and 100 mg/l bovine serum albumin (BSA) on a collagen-coated plate in a moist atmosphere (5% CO2, 95% air) at 37° C. [Nakamura, M., et al., Endocrinology, 133, 538-544 (1993)]. The granulosa cells obtained by the culturing were used in Examples.
The rat granulosa cells obtained in Reference Example 1 (5×10^6 living cells) were cultured in 5 ml of a serum-free medium [Ham's F-12/DME (1:1 vol/vol)] on a plate of 60 mm diameter for 24 hours, and the resulting culture was allowed to stand separately in the presence of 30 ng/ml rat FSH (I-8) [obtained from National Hormone and Pituitary Distribution Program (Bethesda Md.)] and in the presence of FSH (30 ng/ml) and 2,3,7,8-tetrachlorodibenzop-dioxin (TCDD) [Sigma Chemical Co.] (1, 10 and 100 pmol/l). TCDD was used after being dissolved in dimethyl sulfoxide.
After culturing was stopped 24, 48 and 72 hours later, RNAs formed in the cells were extracted to obtain pellets of the RNA mixture according to the AGTC method [trade name: Isogen, produced by Nippon Gene Co., Ltd., Chomezynski, P. and Sacchi, N., Anal. Biochem., 162, 156-159 (1987)]. To inhibit RNase, 15 μg of the obtained pellets was dissolved in diethyl-pyrocarbonate-treated water. The resulting solution was subjected to denatured agarose gel electrophoresis and the RNAs were transferred to a nylon membrane (trade name: Biodyne, produced by ICN) to carry out Northern blotting analysis. A film (trade name: Kodak X-Omat, produced by Eastman Kodak Co.) was exposed to the nylon membrane according to the standard manual of a nucleic acid detection kit (produced by Boehringer Mannheim) for fluorescence detection using 2202 UnitroScan Laser Densitometer (produced by LKB Co., Ltd.) to determine the mRNAs.
Rat LH-R mRNA was prepared according to the description in Mol. Cell. Endocrinol., 82, 259-263 (1991). The obtained rat […] into the EcoRI site of Bluescript ks (+) vector, followed by subcloning and linearization with BglII [Nakamura, K., Nakamura, M., Igarashi, S., Miyamoto, K., Eto, Y., Ibuki, Y., and Minegishi, T., Endocrinology, 134, 2329-2335 (1994)]. Then, digoxigenin-labeled LH-R cRNA corresponding to nucleotide numbers 440 to 2560 of the rat LH-R mRNA was prepared by in vitro transcription using T3 RNA polymerase and an RNA-labeling kit.
Each of the rat LH-R mRNAs (5.4 kb) obtained in the above (1) was determined according to the luminescence intensity method. The luminescence intensity was measured with LKB 2202 UnitroScan Laser Densitometer (produced by LKB Co., Ltd.) using the probe prepared in the above (2).
The amount of each rat LH-R mRNA expressed was determined using the amount of GAPDH (glyceraldehyde 3-phosphate dehydrogenase) mRNA expressed as a reference value to obtain the relative value (%) based on the control [addition of only FSH (30 ng/ml)]. The data were expressed in terms of […] of the values obtained by carrying out culturing three times under the same conditions. […]

SMILES: Clc1cc2c(cc1Cl)Oc1cc(Cl)c(Cl)cc1O2 [TCDD, 2,3,7,8-tetrachlorodibenzop-dioxin]
- expression of LH-R mRNA (Northern blotting) (1 pmol/l TCDD plus FSH 30 ng/ml, 48 hours): a little decrease
- expression of LH-R mRNA (Northern blotting) (10 pmol/l TCDD plus FSH 30 ng/ml, 48 hours): clearly inhibited
- amount of expressed LH-R mRNA versus FSH alone (Northern blotting) (10 pmol/l TCDD plus FSH 30 ng/ml, after 24 hours of standing): difference in the amount of expressed LH-R mRNA already appeared
- amount of LH-R mRNA expressed relative to that without TCDD addition (10 pmol/l TCDD plus FSH 30 ng/ml, after 24 hours): less than 50%
- amount of LH-R mRNA expressed relative to that without TCDD addition (10 pmol/l TCDD plus FSH 30 ng/ml, after 48 hours): less than 50%
- amount of LH-R mRNA expressed relative to that without TCDD addition (10 pmol/l TCDD plus FSH 30 ng/ml, after 72 hours): less than 50%
- concentration dependency of LH-R mRNA expression (densitometer) (1, 10, 100 pmol/l TCDD plus FSH 30 ng/ml, 48 hours): decreased in a manner dependent upon the amount of TCDD added

Reference: patent US20030003491A1, “Method for detecting or quantifying environmental hormones” (priority 2000, published 2003)
